Reference: patent US10947242B2, “[1,2,4]triazolo[1,5and#8208;A]pyrimidine compounds as PDE2 inhibitors” (Janssen Pharmaceutica NV, priority 2016, dated 2021)
Read-outs that look alike come from different tables or passages of the source.

What was measured:
[1] = target: T1, Human recombinant PDE2A (hPDE2A) (Homo sapiens, UniProt O00408); assay: In vitro assay PDE2A (SPA, 3H-cGMP hydrolysis); assay type: biochemical; settings: for Emax: read-out: hPDE2A Emax
T1 construct: His tag (inferred from metal chelate purification); made in house; host or cells: Sf9 insect cells (baculovirus)
T1 sequence (O00408 whole entry): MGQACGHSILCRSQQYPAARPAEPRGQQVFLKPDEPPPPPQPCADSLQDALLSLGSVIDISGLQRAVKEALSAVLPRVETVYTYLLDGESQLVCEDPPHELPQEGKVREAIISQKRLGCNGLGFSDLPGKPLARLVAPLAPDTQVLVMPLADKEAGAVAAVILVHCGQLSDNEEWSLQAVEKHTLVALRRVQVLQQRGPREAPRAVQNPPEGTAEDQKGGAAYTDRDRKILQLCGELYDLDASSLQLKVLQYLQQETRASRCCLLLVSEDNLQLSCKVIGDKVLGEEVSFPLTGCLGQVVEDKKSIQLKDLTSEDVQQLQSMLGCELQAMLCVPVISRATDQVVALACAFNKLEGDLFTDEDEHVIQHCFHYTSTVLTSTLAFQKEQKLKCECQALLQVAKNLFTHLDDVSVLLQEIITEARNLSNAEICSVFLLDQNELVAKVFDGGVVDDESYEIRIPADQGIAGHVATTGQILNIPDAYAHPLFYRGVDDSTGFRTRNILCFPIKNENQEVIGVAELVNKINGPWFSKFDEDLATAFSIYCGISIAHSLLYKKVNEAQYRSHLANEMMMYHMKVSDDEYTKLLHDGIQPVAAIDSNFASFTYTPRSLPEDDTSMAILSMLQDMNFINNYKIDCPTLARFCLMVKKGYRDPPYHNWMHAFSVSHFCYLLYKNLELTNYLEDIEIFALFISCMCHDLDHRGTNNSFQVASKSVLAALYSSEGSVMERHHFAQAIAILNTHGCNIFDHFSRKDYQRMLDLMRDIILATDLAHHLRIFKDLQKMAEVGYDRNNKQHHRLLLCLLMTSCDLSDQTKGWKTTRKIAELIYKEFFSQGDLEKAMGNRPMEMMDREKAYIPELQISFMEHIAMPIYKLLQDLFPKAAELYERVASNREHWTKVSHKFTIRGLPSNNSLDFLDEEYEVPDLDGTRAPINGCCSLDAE

[2] = target: T2, Human recombinant PDE3A (hPDE3A) (Homo sapiens, UniProt Q14432); assay: In vitro assay PDE3A (SPA, 3H-cAMP hydrolysis); assay type: biochemical; settings: for IC50: hPDE3B pIC50, read-out: pIC50 (converted); for Emax: read-out: hPDE3B Emax, read-out: Emax;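 as to all read-outs here: the method names PDE3A and the table heading PDE3B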
T2 construct: purchased Scottish Biomedical; host or cells: Sf9 insect cells
T2 sequence (Q14432 whole entry): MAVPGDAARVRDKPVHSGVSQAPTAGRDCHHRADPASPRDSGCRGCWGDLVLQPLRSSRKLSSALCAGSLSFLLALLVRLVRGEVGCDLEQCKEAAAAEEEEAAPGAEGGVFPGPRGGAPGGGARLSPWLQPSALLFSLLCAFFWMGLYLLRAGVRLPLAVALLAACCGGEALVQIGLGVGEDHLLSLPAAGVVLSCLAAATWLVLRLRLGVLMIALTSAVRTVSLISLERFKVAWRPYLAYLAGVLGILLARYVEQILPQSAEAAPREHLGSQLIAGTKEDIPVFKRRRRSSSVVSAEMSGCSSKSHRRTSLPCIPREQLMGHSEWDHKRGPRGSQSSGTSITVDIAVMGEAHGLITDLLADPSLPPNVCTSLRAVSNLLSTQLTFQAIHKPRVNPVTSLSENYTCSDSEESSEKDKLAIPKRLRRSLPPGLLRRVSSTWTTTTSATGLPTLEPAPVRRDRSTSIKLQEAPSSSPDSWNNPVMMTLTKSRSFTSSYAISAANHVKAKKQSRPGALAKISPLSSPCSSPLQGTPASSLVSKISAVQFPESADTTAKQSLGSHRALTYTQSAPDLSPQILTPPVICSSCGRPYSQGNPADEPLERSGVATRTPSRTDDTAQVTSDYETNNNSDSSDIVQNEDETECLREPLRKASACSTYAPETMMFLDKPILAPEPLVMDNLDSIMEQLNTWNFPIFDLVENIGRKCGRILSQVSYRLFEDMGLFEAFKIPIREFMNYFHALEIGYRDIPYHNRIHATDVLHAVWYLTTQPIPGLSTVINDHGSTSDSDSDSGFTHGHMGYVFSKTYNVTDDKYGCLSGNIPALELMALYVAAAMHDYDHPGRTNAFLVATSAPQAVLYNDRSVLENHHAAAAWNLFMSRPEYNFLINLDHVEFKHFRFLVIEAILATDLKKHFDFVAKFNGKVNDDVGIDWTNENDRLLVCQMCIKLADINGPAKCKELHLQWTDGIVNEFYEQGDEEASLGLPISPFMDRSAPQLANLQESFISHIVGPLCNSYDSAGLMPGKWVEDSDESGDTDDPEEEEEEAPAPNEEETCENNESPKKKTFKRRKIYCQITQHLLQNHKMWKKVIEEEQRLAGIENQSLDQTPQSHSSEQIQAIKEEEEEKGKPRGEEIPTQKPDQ
In short: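 Radiometric SPA measuring [3H]-cAMP hydrolysis (0.4 μM cAMP, 2.4 μCi/ml) over 60 min at room temperature, in Tris pH 7.8 buffer with MgCl2 and EGTA, 1% DMSO. Enzyme: recombinant human brain PDE3A expressed in Sf9 cells, used as partially purified lysate. Counts compared with enzyme-free blanks and vehicle controls.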

[3] = target: T3, PDE2A (Rattus norvegicus, UniProt Q01062); assay: PDE2 occupancy by test compounds, ex-vivo autoradiography with [3H]B-17a; assay type: in vivo, Male Wistar rats; settings: 10 mg/kg, percentage receptor occupancy, ex-vivo autoradiography, striatum
T3 construct: Twenty μm-thick striatal sections were cut; from tissue; host or cells: rat brain, striatal sections
T3 sequence (Q01062 1-928): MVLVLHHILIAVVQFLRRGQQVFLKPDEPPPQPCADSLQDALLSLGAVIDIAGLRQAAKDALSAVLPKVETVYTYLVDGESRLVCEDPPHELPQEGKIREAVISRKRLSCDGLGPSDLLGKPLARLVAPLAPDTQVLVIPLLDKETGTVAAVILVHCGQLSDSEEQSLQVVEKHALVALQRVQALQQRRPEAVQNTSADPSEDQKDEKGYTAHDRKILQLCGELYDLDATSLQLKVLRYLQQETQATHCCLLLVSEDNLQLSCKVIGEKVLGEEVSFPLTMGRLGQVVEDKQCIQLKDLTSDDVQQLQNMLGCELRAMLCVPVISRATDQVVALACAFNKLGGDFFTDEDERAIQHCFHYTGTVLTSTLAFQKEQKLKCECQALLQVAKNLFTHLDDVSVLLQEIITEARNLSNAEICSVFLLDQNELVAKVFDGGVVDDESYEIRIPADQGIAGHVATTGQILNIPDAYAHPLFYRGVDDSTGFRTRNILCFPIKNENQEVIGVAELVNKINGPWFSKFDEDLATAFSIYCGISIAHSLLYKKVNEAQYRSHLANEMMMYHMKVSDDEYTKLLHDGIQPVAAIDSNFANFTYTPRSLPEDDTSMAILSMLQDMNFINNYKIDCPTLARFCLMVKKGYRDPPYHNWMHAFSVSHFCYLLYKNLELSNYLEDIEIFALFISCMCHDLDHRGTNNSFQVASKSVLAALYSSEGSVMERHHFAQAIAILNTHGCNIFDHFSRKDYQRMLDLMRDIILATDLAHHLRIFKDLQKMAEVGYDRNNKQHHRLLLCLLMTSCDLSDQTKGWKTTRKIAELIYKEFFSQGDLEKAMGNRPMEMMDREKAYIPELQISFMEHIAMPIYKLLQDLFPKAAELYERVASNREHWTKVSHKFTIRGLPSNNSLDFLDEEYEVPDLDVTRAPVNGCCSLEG

[4] = target: T4, Human recombinant PDE10A (hPDE10A) (Homo sapiens, UniProt Q9Y233); assay: In vitro assay PDE10A, human clone (SPA, 3H-cAMP hydrolysis); assay type: biochemical; settings: human clone (h), default; for Emax: read-out: hPDE10A2 Emax; for IC50: read-out: hPDE10A2 pIC50 (converted)
T4 construct: His tag (inferred from metal chelate purification); made in house; host or cells: Sf9 insect cells (baculovirus)
T4 sequence (Q9Y233 267-1055): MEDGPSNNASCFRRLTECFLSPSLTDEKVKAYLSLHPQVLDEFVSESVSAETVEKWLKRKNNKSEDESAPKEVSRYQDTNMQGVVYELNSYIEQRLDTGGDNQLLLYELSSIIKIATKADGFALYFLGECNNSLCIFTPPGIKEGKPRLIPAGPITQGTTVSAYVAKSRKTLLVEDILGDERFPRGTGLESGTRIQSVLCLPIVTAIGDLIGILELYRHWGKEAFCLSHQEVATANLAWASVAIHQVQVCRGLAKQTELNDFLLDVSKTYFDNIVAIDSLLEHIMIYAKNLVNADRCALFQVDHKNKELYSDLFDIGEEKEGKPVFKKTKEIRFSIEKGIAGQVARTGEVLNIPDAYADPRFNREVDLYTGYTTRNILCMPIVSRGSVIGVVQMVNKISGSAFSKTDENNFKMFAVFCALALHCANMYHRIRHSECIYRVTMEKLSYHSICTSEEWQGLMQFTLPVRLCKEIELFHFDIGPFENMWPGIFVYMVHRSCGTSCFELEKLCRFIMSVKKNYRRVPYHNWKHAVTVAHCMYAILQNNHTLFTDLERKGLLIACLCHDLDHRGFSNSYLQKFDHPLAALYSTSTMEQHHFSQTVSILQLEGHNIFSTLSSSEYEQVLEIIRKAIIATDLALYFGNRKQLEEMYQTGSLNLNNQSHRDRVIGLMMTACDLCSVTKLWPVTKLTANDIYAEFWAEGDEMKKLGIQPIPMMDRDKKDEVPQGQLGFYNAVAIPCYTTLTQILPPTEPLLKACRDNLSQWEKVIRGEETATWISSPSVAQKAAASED
In short: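 Hydrolysis of 3H-cAMP (60 nM cAMP, 0.008 μCi tracer) proceeded for 60 min at room temperature, with the product detected by SPA bead scintillation counting. The enzyme was hPDE10A from baculovirus-infected Sf9 cells in Tris pH 7.8 buffer with MgCl2 and EGTA, and compounds were at 1% DMSO final. Blanks lacked enzyme.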

[5] = human recombinant PDE2A, 10 μM cGMP substrate, read-out: hPDE2A pIC50 (converted)
[6] = read-out: hPDE2A pIC50 (converted)
[7] = hPDE2A pIC50, human recombinant PDE2A, 10 μM cGMP substrate
[8] = human recombinant PDE2A, 10 μM cGMP substrate

Compound | Emax [1] [%] | IC50 [2] [nM] | Emax [2] [%] | receptor occupancy at 10 mg/kg ([3]; po, route PO (oral)) [%] | Emax [4] [%] | IC50 [4] [nM] | IC50 ([1]; hPDE2A pIC50) [nM] | IC50 [1, 7] [nM] | also measured
CCCC[C@H]1CCN(C(=O)c2cc(C)nc(C)c2)C[C@@H]1c1cc(C(F)F)nc2ncnn12 (single isomer, unassigned) [Compound 46] | 100 | > 10000 | 5 | -9 | 86 | 2240 | – | – | IC50 [1, 5]: 15.1 nM; Emax ([1]; human recombinant PDE2A): 100%; IC50 [1, 6]: 15.1 nM
Cc1cc(C(=O)N2CC[C@@H](C)[C@H](c3cc(C)nc4ncnn34)C2)cc(C)n1 [Compound 1a] | 100 | 2090 | 65 | 37 | 98 | 12.9 | 0.794 | 0.794 | –
Cc1cc([C@@H]2CN(C(=O)c3ccc4ncsc4c3)CC[C@H]2C)n2ncnc2n1 [Compound 2a] | 101 | 776 | 98 | – | 101 | 7.24 | 0.589 | 0.589 | receptor occupancy at 10 mg/kg ([3]; sc, route SC (subcutaneous)): 70%
Cc1cc([C@H]2CN(C(=O)c3ccc4ncsc4c3)CC[C@@H]2C)n2ncnc2n1 [Compound 2b] | 100 | > 10000 | 31 | – | 95 | 269 | 19.1 | 19.1 | receptor occupancy at 10 mg/kg ([3]; sc, route SC (subcutaneous)): 3%
Cc1cc([C@@H]2CN(C(=O)c3cc(C)c(C)cn3)CC[C@H]2C)n2ncnc2n1 [Compound 3a] | 97 | 3470 | 77 | 0 | 93 | 269 | 5.75 | 5.75 | –
Cc1cc(C(=O)N2CC[C@@H](C)[C@H](c3cc(C)nc4ncnn34)C2)cc(C(F)(F)F)n1 [Compound 4] | 100 | 5750 | 70 | 9 | 99 | 24 | 1.45 | 1.45 | –
Cc1cc([C@@H]2CN(C(=O)c3ccc4occc4c3)CC[C@H]2C)n2ncnc2n1 [Compound 6] | 99 | 676 | 97 | 67 | 100 | 17.8 | 1.62 | 1.62 | –
Cc1cc([C@@H]2CN(C(=O)c3cc4cccnc4nc3C(F)(F)F)CC[C@H]2C)n2ncnc2n1 [Compound 13] | 100 | > 10000 | 38 | 2 | 95 | 347 | – | – | IC50 [1, 5]: 10.5 nM; Emax ([1]; human recombinant PDE2A): 100%; IC50 [1, 6]: 10.5 nM
Cc1cc([C@@H]2CN(C(=O)c3cc(Cl)ncc3C)CC[C@H]2C)n2ncnc2n1 [Compound 18] | 100 | 6460 | 65 | 4 | 97 | 195 | – | – | IC50 [1, 5]: 4.68 nM; Emax ([1]; human recombinant PDE2A): 100%; IC50 [1, 6]: 4.68 nM
Cc1cc(C(=O)N2CC[C@@H](C)[C@](F)(c3cc(C(F)F)nc4ncnn34)C2)cc(C2CC2)n1 [Compound 24b] | – | – | – | – | – | – | – | – | hPDE2A Emax [1]: 98; hPDE2A pIC50 [1]: 8.19; hPDE2A Emax ([1]; human recombinant PDE2A): 98; hPDE2A pIC50 [1, 8]: 8.19; hPDE3B Emax [2]: 28; PDE2 Occupancy at 10 mg/kg ([3]; route SC (subcutaneous)): 0; hPDE10A2 Emax [4]: 60; hPDE10A2 pIC50 [4]: 5.13
O=C(c1ccc2ncsc2c1)N1[C@H]2CC[C@@H]1[C@H](c1cc(C(F)F)nc3ncnn13)CC2 [Compound 25b] | – | – | – | – | – | – | – | – | hPDE2A Emax [1]: 92; hPDE2A pIC50 [1]: 5.96; hPDE2A Emax ([1]; human recombinant PDE2A): 92; hPDE2A pIC50 [1, 8]: 5.96; hPDE3B Emax [2]: 37; PDE2 Occupancy at 10 mg/kg ([3]; route PO (oral)): −9; hPDE10A2 Emax [4]: 28; hPDE10A2 pIC50 [4]: <5
